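A five-concentration, 48-hour dose response in 96-well plates underlies each endpoint, interpolated linearly between surrounding concentrations. Here, GI50 denotes the concentration required for 50% inhibition of growth. Definition used: TGI = concentration required for complete inhibition of growth.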
Experiments:
Assay in all cases: NCI tumour cell line growth inhibition, 48 h
HT29 colon = system: HT29 colon
SNB-19 CNS = system: SNB-19 CNS
HOP-62 NSCLC = system: HOP-62 NSCLC
UO-31 renal = system: UO-31 renal
TK-10 renal = system: TK-10 renal
HCT-15 colon = system: HCT-15 colon
NCI/ADR-RES ovarian = system: NCI/ADR-RES ovarian
NCI-H522 lung = system: NCI-H522 lung
OVCAR-5 ovarian = system: OVCAR-5 ovarian
HL-60(TB) leukemia = system: HL-60(TB) leukemia

Row | SMILES | GI50 (HT29 colon) [µM] | TGI (HT29 colon) [µM] | GI50 (SNB-19 CNS) [µM] | TGI (SNB-19 CNS) [µM] | GI50 (HOP-62 NSCLC) [µM] | TGI (HOP-62 NSCLC) [µM] | GI50 (UO-31 renal) [µM] | TGI (UO-31 renal) [µM] | GI50 (TK-10 renal) [µM] | TGI (TK-10 renal) [µM] | GI50 (HCT-15 colon) [µM] | TGI (HCT-15 colon) [µM] | GI50 (NCI/ADR-RES ovarian) [µM] | TGI (NCI/ADR-RES ovarian) [µM] | GI50 (NCI-H522 lung) [µM] | TGI (NCI-H522 lung) [µM] | GI50 (OVCAR-5 ovarian) [µM] | TGI (OVCAR-5 ovarian) [µM] | TGI (HL-60(TB) leukemia) [µM] | GI50 (HL-60(TB) leukemia) [µM]
1 | Nc1ccccc1C#Cc1ccccc1C#Cc1ccccc1N | 5.98 | > 100 | 23.3 | 65.8 | 11 | 26.7 | 6.34 | 22.5 | 4.17 | 20 | 3.42 | 16.8 | 13 | 73.3 | 3.17 | 11.5 | 27.6 | 67.4 |  | 
2 | COC(=O)C1C2CC3C(OC(=O)C31)C2I (centres undefined) |  | > 100 |  | > 100 |  | > 100 |  | > 100 |  | > 10 |  | > 100 |  |  |  | > 100 |  | > 100 | > 100 | 
3 | Cc1cc(NC(=O)NC(=O)c2ccccc2[N+](=O)[O-])ccc1Oc1ncc(Cl)cn1 |  | 3.38 |  | > 66.2 |  | 19.4 |  | 75.6 |  | > 65.2 |  | > 100 |  |  |  | 0.201 |  | > 100 | 0.137 | 
4 | COC1OC(COCc2ccc(Cl)cc2)C(OCc2ccc(Cl)cc2)C1O (centres undefined) |  | 33.2 |  | 32.4 |  | 32.1 |  | 29.4 |  | 67.4 |  | 32.3 |  |  |  | 27.5 |  | 30 | 32.2 | 
5 | COC(=O)C1C(=O)O[C@@H](c2ccc(OC)cc2)C1C(=O)OC (some centres undefined) |  | > 100 |  | > 100 |  | > 100 |  | > 100 |  | > 100 |  |  |  |  |  |  |  | > 100 |  | 
6 | CCCCCCCCC(=O)CCCCCCCCC(=O)O |  | 49.7 |  | > 100 |  | 66.6 |  | 84.7 |  | > 100 |  |  |  |  |  | 85 |  | 55.3 | 16.2 | 
7 | Oc1c(Cl)cc(C(c2cc(Cl)c(O)c(Cl)c2)C(c2cc(Cl)c(O)c(Cl)c2)c2cc(Cl)c(O)c(Cl)c2)cc1Cl | 4.36 | 16.3 | 3.51 | 17.3 | 6.28 | 19.2 | 0.573 | 8.04 | 7.05 | 21.5 | 2.57 | 13.7 | 10.7 | 38 | 6.36 | 47.5 | 12.3 | 24.8 |  | 
8 | Cc1cc(N2CCOCC2)nc(N(CCNc2ccnc3cc(Cl)ccc23)Cc2ccco2)n1 | 1.92 | 5.53 | 6.49 | 48.1 | 3.62 | 31.3 | 1.99 | 6.97 | 2.71 | 9.62 | 3.6 | 34.9 | 4.5 | 68.8 | 1.84 | 4.75 | 9.4 | 44.6 |  | 
9 | NC1=NN(c2ccccc2)C(=O)C1C(=O)C(=O)NC1C2CC3CC(C2)CC1C3 (centres undefined) |  | > 100 |  | > 100 |  | > 100 |  | > 100 |  | > 100 |  | > 100 |  |  |  |  |  | > 100 | > 100 | 
10 | O=[n+]1cnn([O-])c2ccccc21 |  | 40.4 |  | > 100 |  | 49.9 |  | 94.4 |  | > 100 |  | 35.6 |  | > 100 |  | 45.2 |  | > 100 |  | 
11 | Cc1c(NC(=O)CCCl)c(=O)oc2c(C)c3occc(=O)c3cc12 |  | > 100 |  | > 100 |  | > 100 |  | > 100 |  | > 100 |  | > 100 |  | > 100 |  |  |  | > 100 | > 100 | 
12 | O=c1oc2c(Br)c(O)c(Br)cc2c2ccccc12 |  | > 100 |  | 93.4 |  | > 100 |  |  |  | > 100 |  | 42.9 |  | 78.1 |  | 51.3 |  | > 100 | 52.3 | 
13 | CCC[CH2][Sn]([CH2]CCC)([O]C(=O)c1cc(OC)c(OC)c(OC)c1)[O]C(=O)c1cc(OC)c(OC)c(OC)c1 | 1.69 | 3.33 | 0.464 | 1.54 | 2.01 | 3.45 | 1.33 | 2.61 | 1.58 | 3.02 |  |  |  |  | 0.191 | 0.348 | 2.32 | 3.83 |  | 
14 | CC(=O)NC(ON1C(=O)COc2ccccc21)C(Cl)(Cl)Cl (centres undefined) |  | > 100 |  | > 100 |  | > 100 |  | > 100 |  | > 100 |  | > 100 |  |  |  | > 100 |  | > 100 | > 100 | 
15 | CC(=O)c1cc2c3c(c1)c1cc4c(cc1c(=O)n3CC2)OCO4 |  | > 100 |  | > 100 |  | > 100 |  | 38.6 |  | > 100 |  | > 100 |  |  |  | 34 |  | > 100 | > 100 | 
16 | CCOC(=O)CC(=O)N(c1ccc(OC)cc1)C(C(=O)OC)c1ccccc1 (centres undefined) |  | > 100 |  | > 100 |  | > 100 |  | > 100 |  | > 100 |  | > 100 |  | > 100 |  | > 100 |  | > 100 |  | 
17 | COC(=O)C1=C2C3=C(C(=O)c4ccccc4C3=O)N(Cc3ccccc3)C2(OC(C)=O)C=CC1=O (centres undefined) | 37 | > 100 | 31.3 | > 100 | 2.94 | 13.7 | 18.2 | > 100 |  | 33.8 | 14.1 | 53.9 | 8.56 | > 100 | 5.56 | > 100 | 18.4 | > 100 |  | 
18 | Clc1cccc(Cn2cc(Cc3cn(Cc4cccc(Cl)c4)c4ccccc34)c3ccccc32)c1 | > 100 | > 100 | > 100 | > 100 | > 100 | > 100 | 10.5 | > 100 | 92.6 | > 100 | > 100 | > 100 |  |  | 45.5 | > 100 | 47.1 | > 100 | > 100 | > 100
19 | O=S1Cc2ccccc2CS1 (centres undefined) |  | 30.1 |  | > 100 |  |  |  | 56.4 |  | 55.6 |  | > 100 |  |  |  | 19.7 |  | 56.9 | 40.9 | 
